Test results from US7524505B2, “Compositions and methods for dual therapies of hair graying and balding in follicular delivery systems” (Schweitzer Biotech Company Ltd., priority 2005, dated 2009).

Tested on: hair follicle organ
Experiment: Hair follicle organ cultured in vitro, length of re-grown hair
Assay type: cell-based, mice (F1 generation of C3H mated with BALB/C)
Settings: hair follicles cultured 12 days in the formula of amino acids and vitamins; length measured at Day 12; FIG. 7
Source text: At the age of 8 weeks, the F1 generation of C3H mated with BALB/C supplies the hair follicle material. By plucking the whiskers by depilating forceps, an anagen phase of the hair follicle can be induced. After three days of whisker plucking, the mice were killed and the hair follicle samples were harvested. Each selected hair follicle was then carefully isolated from the subcutaneous fat and the connective tissue surrounding the capsule was removed under a stereo-dissection microscope with fine forceps. We picked up the intact hair follicles with average size for the next step of culture, and which is in the early anagen stage, which is determined by the hair follicle conformation. Before culture, the hair fibre was first cut out at the surrounding line of the hair follicle to make the length measurement of hair growth much more easily in the future (FIG. 7). […]
Ten hair follicles were cultured in each treatment. […] The length of the hair growth beginning from the cutting site was measured at Day 12. […]
Hair follicle was observed by the Inverted microscope (Lieca DM, IL) and captured with the image by CCD connecting with a computer. The hair length was analyzed with the computer software: Northern Eclipse image system. The data of hair length were analyzed with the Duncan's new multiple range test by one way analysis of variance (ANOVA) using the SigmaStat program (2002).

In the case of “HSCF-II: recombinant fusion of human SCF, linking peptide and IGF-I; 253 amino acids, SEQ ID NO:6”, the “effect on hair re-growth (hair length)” value is reported as “even better than each of SCF and IGF-I”.
